In patent publication EP4721737A1, “USE OF PHARMACEUTICAL COMPOSITION COMPRISING COMPOUND HAVING BIS(AZANYLYLIDENE) SULFONYL STRUCTURE FOR TREATING ANEMIA-RELATED DISEASES” (Scinnohub Pharmaceutical Co., Ltd., priority 2023, dated 2024):

Target: T1, PKR in ex vivo red blood cells from healthy individuals (Homo sapiens, UniProt P30613)
T1 construct: endogenous in cells; host or cells: human red blood cells isolated from fresh peripheral blood of healthy individuals
Assay: ex vivo pyruvate kinase (PKR) activity experiment, red blood cells of healthy individuals
Format: cell-based
Details: 3 hours co-cultivation
Method: To test the effects of the compound of the present disclosure on PKR activation in ex vivo red blood cells from healthy individuals and patients with thalassemia.
• i. 5 g of glucose, 85 mg of adenine, and 2.625 g of mannitol were weighed and added into a 50 mL centrifuge tube. 40 mL of PBS was added to dissolve (sonicate for 30 minutes until completely dissolved). The solution was filtered through a 0.22 µm filter, then added to 460 mL of sterile PBS and mixed thoroughly.
• i. Fresh human peripheral blood was collected. K2EDTA was used as the anticoagulant. 1 part anticoagulant with 9 parts blood was mixed, then centrifuged at 500 g for 10 minutes at room temperature to remove the plasma. • ii. Packed red blood cells: 1.5 volumes of PBS were added, then centrifuged at 2000 ×g for 5 minutes at room temperature. After centrifugation, the supernatant was removed. This step was repeated twice. • iii. Diluted red blood cells: 1.5 volumes of PBS were added, then resuspended and mixed thoroughly. • iv. The diluted red blood cells were slowly added to 0.5 volume of 70% isotonic solution (e.g., 7.5 mL of diluted red blood cells + 3 mL of 70% isotonic solution Percoll) and centrifuged at 4000 ×g for 20 minutes at 4°C. • v. The supernatant was removed. The red blood cells at the bottom were washed once with 4-5 mL of PBS to elute the Percoll gel, and then centrifuged at 2000 ×g for 5 minutes at room temperature. • vi. The supernatant was removed. The red blood cells were counted and then diluted in AGAM medium containing 10% FBS to a density of 2 × 10^8 cells/mL for storage at 4°C.
i. The red blood cells were seeded into a 96-well plate at a uniform density of 1 × 10^7 cells/mL, with 100 µL per well. The test compounds (dissolved in DMSO) were diluted and added to the cell culture medium, resulting in final compound concentrations of 3000, 1000, 300, 100, 10, 3, and 1 nM (with 1% DMSO). The cells and compounds were co-cultivated for 3 hours in a 37°C incubator with 5% CO2. Subsequently, the plate was centrifuged at 2000 g for 20 minutes, and the supernatant was discarded. 100 µL of red blood cell lysis buffer was added to the cell pellet, vortexed for 20 minutes, and centrifuged at 4000 g for 5 minutes. The supernatant was collected for analysis. ii. The reaction system was prepared according to the kit instructions (shown as the table below), 10 µL of the reaction system was added to each well of a 384-well plate, and 10 µL of red blood cell lysis buffer was took and mixed well (20 µL reaction system).
iii. A black, transparent-bottomed 384-well plate was placed in a microplate reader to measure fluorescence at 540/590 nm. The fluorescence was read every 2 minutes for 1 hour.
i. The Slope value was calculated over the assay time. Compound activation percentage was calculated using the 1% DMSO well as the control well. Activation percentage = (Slope of compound well / Slope of control well) × 100% ii. Dose-response curve was fit using the logarithmic compound concentration on the X-axis and the percent activation percentage on the Y-axis, the log(agonist) vs. response - variable slope function in GraphPad Prism 5 was used to determine the AC50 value for each compound on PKR activity. Y = min + (max−min)/(1+10^(∧)((LogAC50−X)×Hillslope)). [formula] The PKR agonist effects of the compound of the present disclosure on ex vivo red blood cells from healthy individuals and thalassemia patients were determined using the above assay. The AC50 values measured on ex vivo red blood cells from healthy individuals are as follows (A represents 0-100 nM, B represents 101-300 nM, and C represents 300-1000 nM): […]

T1 sequence (P30613 whole entry): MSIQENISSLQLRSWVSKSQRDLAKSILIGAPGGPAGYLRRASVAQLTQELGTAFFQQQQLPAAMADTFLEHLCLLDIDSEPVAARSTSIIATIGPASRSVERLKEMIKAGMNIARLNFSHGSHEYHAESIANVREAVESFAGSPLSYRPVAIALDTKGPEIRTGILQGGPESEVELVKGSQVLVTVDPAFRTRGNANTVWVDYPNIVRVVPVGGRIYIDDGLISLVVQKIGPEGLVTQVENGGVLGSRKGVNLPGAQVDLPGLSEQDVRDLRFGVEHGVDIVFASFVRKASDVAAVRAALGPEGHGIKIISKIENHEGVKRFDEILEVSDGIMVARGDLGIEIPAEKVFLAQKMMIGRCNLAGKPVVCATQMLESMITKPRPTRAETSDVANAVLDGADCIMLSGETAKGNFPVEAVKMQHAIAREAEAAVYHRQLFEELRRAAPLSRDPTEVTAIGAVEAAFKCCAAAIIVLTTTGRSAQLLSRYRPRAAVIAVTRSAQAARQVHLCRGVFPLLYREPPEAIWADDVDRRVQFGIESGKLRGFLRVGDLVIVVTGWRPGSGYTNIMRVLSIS

Row | Structure (SMILES) | AC50 [nM]
1 | COc1ccc(S(=O)(=O)N2CC(=C3CN(C(=O)[C@H](CO)c4ccccc4)C3)C2)cc1 [Compound 5, (S)-3-hydroxy-1-(1'-((4-methoxyphenyl)sulfonyl)-1',4'-dihydro-2H,2'H-[3,3'-diazetidinylidene]-1(4H )-yl)-2-phenylpropan-1-one] | 101 to 300
2 | O=C(N1CC(=C2CN(S(=O)(=O)c3ccc(OC(F)F)cc3)C2)C1)C1(c2ccccc2)CCOC1 (centres unmarked) [Compound 37, (1'-((4-(difluoromethoxy)phenyl)sulfonyl)-1',4'-dihydro-2H,2'H-[3,3'-diazetidinylidene]-1(4H)-yl)(3-phenyltetrahydrofuran-3-yl)methanone] | 300 to 1000
3 | CN1CCN(c2cccc(C(O)C(=O)N3CC(=C4CN(S(=O)(=O)c5ccc6ncsc6c5)C4)C3)c2)CC1 (centres unmarked) [Compound 43, 1-(1'-(benzo[d]thiazol-6-ylsulfonyl)-1',4'-dihydro-2H,2'H-[3,3'-diazetidinylidene]-1(4H)-yl)-2-hydroxy-2-(3-(4-methylpiperazin-1-yl)phenyl)ethan-1-one] | 101 to 300
4 | O=C([C@H](CO)c1ccccc1)N1CC(=C2CN(S(=O)(=O)c3ccc(OC(F)(F)F)cc3)C2)C1 [Compound 9, (S)-3-hydroxy-2-phenyl-1-(1'-((4-(trifluoromethoxy)phenyl)sulfonyl)-1',4'-dihydro-2H,2'H-[3,3'-diazetidinylidene]-1(4H)-yl)propan-1-one] | < 100
5 | O=C(C(CO)C1CCCCC1)N1CC(=C2CN(S(=O)(=O)c3ccccn3)C2)C1 (centres unmarked) [Compound 90, 2-cyclohexyl-3-hydroxy-1-(1'-(pyridin-2-ylsulfonyl)-1',4'-dihydro-2H,2'H-[3,3'-diazetidinylidene]-1(4H)-yl)propan-1-one] | 300 to 1000
6 | O=C(C(CO)c1ccc(F)cc1)N1CC(=C2CN(S(=O)(=O)c3ccc4c(c3)OC(F)(F)O4)C2)C1 (centres unmarked) [Compound 36, 1-(1'-((2,2-difluorobenzo[d][1,3]dioxolan-5-yl)sulfonyl)-1',4'-dihydro-2H,2'H-[3,3'-diazetidinylidene]-1(4H)-yl)-2-(4-fluorophenyl)-3-hydroxypropan-1-one] | < 100
7 | O=C([C@H](CO)c1ccccc1)N1CC(=C2CN(S(=O)(=O)c3cccnc3)C2)C1 [Compound 68, (S)-3-hydroxy-2-phenyl-1-(1'-(pyridin-3-ylsulfonyl)-1',4'-dihydro-2H,2'H-[3,3'-diazetidinylidene]-1(4H)-yl)propane-1-one] | 101 to 300
8 | O=C(C(CO)c1ccc(F)cc1)N1CC(=C2CN(S(=O)(=O)c3ccc(OC(F)F)cc3)C2)C1 (centres unmarked) [Compound 16, 1-(1'-((4-(difluoromethoxy)phenyl)sulfonyl)-1',4'-dihydro-2H,2'H-[3,3'-diazetidinylidene]-1(4H)-yl)-2-(4-fluorophenyl)-3-hydroxypropan-1-one] | < 100
9 | O=C(C(CO)c1ccc(C(F)F)cc1)N1CC(=C2CN(S(=O)(=O)c3ccccn3)C2)C1 (centres unmarked) [Compound 71, 2-(4-(difluoromethyl)phenyl)-3-hydroxy-1-(1'-(pyridin-2-ylsulfonyl)-1',4'-dihydro-2H,2'H-[3,3'-diazetidinylidene]-1(4H)-y 1)propan-1-one] | 101 to 300
10 | O=C(C(CO)c1ccc(F)c(F)c1)N1CC(=C2CN(S(=O)(=O)c3ccccn3)C2)C1 (centres unmarked) [Compound 61, 2-(3,4-difluorophenyl)-3-hydroxy-1-(1'-(pyridin-2-ylsulfonyl)-1',4'-dihydro-2H,2'H-[3,3'-diazetidinylidene]-1(4H)-yl)propan-1-one] | 101 to 300
11 | O=C([C@H](CO)c1ccccc1)N1CC(=C2CN(S(=O)(=O)c3ccc(Cl)cn3)C2)C1 [Compound 66] | < 100
12 | CC(C)Oc1ccc(S(=O)(=O)N2CC(=C3CN(C(=O)[C@H](CO)c4ccccc4)C3)C2)nc1 [Compound 81, (S)-3-hydroxy-1-(1'-((5-isopropoxypyridin-2-yl)sulfonyl)-1',4'-dihydro-2H,2'H-[3,3'-diazetidinylidene]-1(4H)-yl)-2-phenylpropan-1-one] | 300 to 1000
13 | O=C([C@H](CO)c1ccccc1)N1CC(=C2CN(S(=O)(=O)c3ccccn3)C2)C1 [Compound 4, (S)-3-hydroxy-2-phenyl-1-(1'-(pyridin-2-ylsulfonyl)-1',4'-dihydro-2H,2'H-[3.3'-diazetidinylidene]-1(4H)-yl)propan-1-one] | < 100
14 | O=C([C@H](CO)c1ccccc1)N1CC(=C2CN(S(=O)(=O)c3ccc(OC4CC4)cn3)C2)C1 [Compound 82, (S)-1-(1'-((5-cyclopropoxypyridin-2-yl)sulfonyl)-1',4'-dihydro-2H,2'H-[3,3'-diazetidinylidene]-1(4H) -yl)-3-hydroxy-2-phenylpropan-1-one] | 101 to 300

Continued, values first:

Row | AC50 [nM] | Structure (SMILES)
15 | 300 to 1000 | O=C([C@H](CO)c1ccccc1)N1CC(=C2CN(S(=O)(=O)c3ccc4c(c3)NCCO4)C2)C1 [Compound 12, (S)-1-(1'-((3,4-dihydro-2H-benzo[b][1,4]oxazin-6-yl)sulfonyl)-1',4'-dihydro-2H,2'H-[3,3'-diazetidinylidene]-1(4H)-yl)-3-hydroxy-2-phenylpropan-1-one]
16 | 300 to 1000 | O=C([C@H](CO)c1ccccc1)N1CC(=C2CN(S(=O)(=O)c3cc(F)c4c(c3)OCCO4)C2)C1 [Compound 20, (S)-1-(1'-((8-fluoro-2,3-dihydrobenzo[b][1,4]dioxin-6-yl)sulfonyl)-1',4'-dihydro-2H,2'H-[3,3'-diazetidinylidene]-1(4H)-yl)-3-hydroxy-2-phenylpropan-1-one]
17 | < 100 | O=C([C@H](CO)c1ccccc1)N1CC(=C2CN(S(=O)(=O)c3ccc(OC(F)F)c(F)c3)C2)C1 [Compound 11]
18 | 300 to 1000 | Cn1cnc2ccc(S(=O)(=O)N3CC(=C4CN(C(=O)[C@H](CO)c5ccccc5)C4)C3)cc21 [Compound 63, (S)-3-hydroxy-1-(1'-((1-methyl-1H-benzimidazol-6-yl)sulfonyl)-1',4'-dihydro-2H,2'H-[3,3'-diazetidinylidene]-1(4H)-yl)-2-phenylpropan-1-one]
19 | < 100 | CN1C(=O)COc2ccc(S(=O)(=O)N3CC(=C4CN(C(=O)[C@H](CO)c5ccccc5)C4)C3)cc21 [Compound 41, (S)-6-((1'-(3-hydroxy-2-phenylpropionyl)-1',4'-dihydro-2H,2'H-[3,3'-diazetidinylidene]-1(4H)-yl)sulfonyl)-4-methyl-2H-benzo[b][1,4]oxazine-3(4H)-one]
20 | 101 to 300 | O=C([C@H](CO)c1ccccc1)N1CC(=C2CN(S(=O)(=O)c3ccc4ncsc4c3)C2)C1 [Compound 3, (S)-1-(1'-(benzo[d]thiazol-6-ylsulfonyl)-1',4'-dihydro-2H,2'H-[3,3'-diazetidinylidene]-1(4H)-yl)-3-hy droxy-2-phenylpropan-1-one]
21 | < 100 | O=C([C@H](CO)c1ccccc1)N1CC(=C2CN(S(=O)(=O)c3ccc(F)cc3)C2)C1 [Compound 10]
22 | 300 to 1000 | O=C1COc2ccc(S(=O)(=O)N3CC(=C4CN(C(=O)[C@H](CO)c5ccccc5)C4)C3)cc2N1 [Compound 40, (S)-6-((1'-(3-hydroxy-2-phenylpropionyl)-1',4'-dihydro-2H,2'H-[3,3'-diazetidinylidene]-1(4H)-yl)sulfonyl)-2H-benzo[b][1,4]oxazine-3(4H)-one]
23 | 300 to 1000 | O=C([C@H](CO)c1ccccc1)N1CC(=C2CN(S(=O)(=O)c3ccc4c(c3)OCCO4)C2)C1 [Compound 2, (S) -1-(1'-((2,3-dihydrobenzo[b][1,4]dioxin-6-yl)sulfonyl)-1',4'-dihydro-2H,2'H-[3,3'-diazetidinylidene]-1(4H)-yl)-3-hydroxy-2-phenylpropan-1-one]
